# “And” between values parts separate entries of the source, which are not always exact repeats. Equal entries are not always repeated. Inconclusive results and toxic doses are left out.
# System: P388 leukemia ip, CD2F1 mice, survival T/C
# Assay: NCI In Vivo Anticancer Drug Screen. Data for tumor model P388 Leukemia (intraperitoneal) in CD2F1 (CDF1) mice
# Settings: endpoint: median survival time, higher = longer survival
# Procedure, shortened: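 Mice carrying the transplanted tumor received test compound or vehicle. Survival was recorded in each group, and the value is the treated-group measurement divided by that of the vehicle-treated control group.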
# [1] = dose: 50.0 mg/kg/injection, schedule: Q01DX005 (ip), vehicle: saline with Tween-80
# [2] = dose: 100.0 mg/kg/injection, schedule: Q01DX005 (ip), vehicle: saline with Tween-80
# [3] = dose: 200.0 mg/kg/injection, schedule: Q01DX005 (ip), vehicle: saline with Tween-80
# [4] = dose: 100.0 mg/kg/injection, schedule: Q01DX009 (ip), vehicle: Klucel (hydroxypropylcellulose) (HPC)
# [5] = dose: 200.0 mg/kg/injection, schedule: Q01DX009 (ip), vehicle: Klucel (hydroxypropylcellulose) (HPC)
# [6] = dose: 12.5 mg/kg/injection, schedule: Q01DX009 (ip), vehicle: saline with Tween-80
# [7] = dose: 25.0 mg/kg/injection, schedule: Q01DX009 (ip), vehicle: saline with Tween-80
# [8] = dose: 50.0 mg/kg/injection, schedule: Q01DX009 (ip), vehicle: saline with Tween-80
# [9] = dose: 50.0 mg/kg/injection, schedule: Q01DX009 (ip), vehicle: Klucel (hydroxypropylcellulose) (HPC)
# [10] = dose: 100.0 mg/kg/injection, schedule: Q01DX001 (ip), vehicle: saline with Tween-80
# [11] = dose: 200.0 mg/kg/injection, schedule: Q01DX001 (ip), vehicle: saline with Tween-80
# [12] = dose: 400.0 mg/kg/injection, schedule: Q01DX001 (ip), vehicle: saline with Tween-80
# [13] = dose: 60.0 mg/kg/injection, schedule: Q01DX005 (ip), vehicle: saline with Tween-80
# [14] = dose: 60.0 mg/kg/injection, schedule: Q01DX005 (ip), vehicle: saline
# [15] = dose: 120.0 mg/kg/injection, schedule: Q01DX005 (ip), vehicle: saline
# [16] = dose: 240.0 mg/kg/injection, schedule: Q01DX005 (ip), vehicle: saline
compound,measurement,setting,value
C[Si]1(C)N[Si](C)(C)N([Si](C)(C)C)[Si](C)(C)N1,T/C,[1],93 % of control
same,T/C,[2],101 % of control
same,T/C,[3],109 % of control
CCOC(=O)C(=O)c1ccc(N(C)C)cc1,T/C,[4],107 % of control
same,T/C,[5],100 % of control
same,T/C,"dose: 400.0 mg/kg/injection, schedule: Q01DX009 (ip), vehicle: Klucel (hydroxypropylcellulose) (HPC)",97 % of control
CC(=O)C1=C(C(C)=O)C2(C)OC1(C)c1ccccc12,T/C,"dose: 100.0 mg/kg/injection, schedule: Q01DX001 (ip), vehicle: Klucel (hydroxypropylcellulose) (HPC)",107 % of control
same,T/C,"dose: 200.0 mg/kg/injection, schedule: Q01DX001 (ip), vehicle: Klucel (hydroxypropylcellulose) (HPC)",104 % of control
same,T/C,"dose: 400.0 mg/kg/injection, schedule: Q01DX001 (ip), vehicle: Klucel (hydroxypropylcellulose) (HPC)",99 % of control
COc1ncnc2c1ncn2C1CCCCO1 (stereo unspecified),T/C,[1],97 % of control
same,T/C,[2],101 % of control
same,T/C,[3],99 % of control
COCC1(C)CCCC2(C)C1CCC13CCC(OC)CC12O3 (stereo unspecified),T/C,"dose: 100.0 mg/kg/injection, schedule: Q01DX001 (ip), vehicle: saline",115 % of control
same,T/C,"dose: 200.0 mg/kg/injection, schedule: Q01DX001 (ip), vehicle: saline",106 % of control
same,T/C,"dose: 400.0 mg/kg/injection, schedule: Q01DX001 (ip), vehicle: saline",94 % of control
C=C(C)C1=CC(=O)C(C)(C)O1,T/C,[6],106 % of control
same,T/C,[7],105 % of control
same,T/C,[8],102 % of control
CCOc1c(N=Nc2ccc(Cl)cc2Cl)c(C)nn1C(=S)SC,T/C,"dose: 60.0 mg/kg/injection, schedule: Q01DX005 (ip), vehicle: Klucel + Tween-80",103 % of control
same,T/C,"dose: 120.0 mg/kg/injection, schedule: Q01DX005 (ip), vehicle: Klucel + Tween-80",107 % of control
O=C(/C=C/c1ccccc1)Oc1cc([N+](=O)[O-])cc([N+](=O)[O-])c1,T/C,"dose: 100.0 mg/kg/injection, schedule: Q04DX002 (ip), vehicle: saline with Tween-80",112 % of control
same,T/C,"dose: 200.0 mg/kg/injection, schedule: Q04DX002 (ip), vehicle: saline with Tween-80",105 % of control
CCN(C(=S)Nc1cccc(C(F)(F)F)c1)c1ccccc1,T/C,[9],101 % of control
same,T/C,[4],108 % of control
O=C1CCC(Cc2ccc(I)cc2)C(=O)N1 (stereo unspecified),T/C,[10],101 % of control
same,T/C,[11],100 % of control
same,T/C,[12],95 % of control
Cc1cc(Cl)cc2c1NC(=O)C2(O)C/C(=N/NC(=O)CC#N)c1cccc([N+](=O)[O-])c1 (stereo unspecified),T/C,[13],93 % of control
same,T/C,[2],103 % of control
same,T/C,[3],101 % of control
[O-][n+]1nc2ccccc2c2ccccc21,T/C,"dose: 12.5 mg/kg/injection, schedule: Q01DX009 (ip), vehicle: Klucel (hydroxypropylcellulose) (HPC)",105 % of control
same,T/C,"dose: 25.0 mg/kg/injection, schedule: Q01DX009 (ip), vehicle: Klucel (hydroxypropylcellulose) (HPC)",105 % of control
same,T/C,[9],105 % of control and 97 % of control
same,T/C,[4],102 % of control
CCOC(=O)Nc1cc2c(c(N)n1)N=C(c1ccc3ccccc3c1)CN2,T/C,"dose: 5.0 mg/kg/injection, schedule: Q01DX005 (ip), vehicle: saline with Tween-80",153 % of control
same,T/C,"dose: 7.5 mg/kg/injection, schedule: Q01DX005 (ip), vehicle: saline with Tween-80",165 % of control
same,T/C,"dose: 10.0 mg/kg/injection, schedule: Q01DX005 (ip), vehicle: saline with Tween-80",166 % of control and 168 % of control
Oc1ccccc1C=Nc1ccccc1N=Cc1ccccc1O.[Zn],T/C,[9],97 % of control
same,T/C,[4],98 % of control
same,T/C,[5],95 % of control
CN=C(NC)c1ccc(NC(=O)c2ccc(C(=O)Nc3ccc(C(=NC)NC)c(OC)c3)c(Cl)c2)cc1OC,T/C,"dose: 0.78 mg/kg/injection, schedule: Q01DX005 (ip), vehicle: saline with Tween-80",101 % of control
same,T/C,"dose: 1.56 mg/kg/injection, schedule: Q01DX005 (ip), vehicle: saline with Tween-80",104 % of control
same,T/C,"dose: 3.13 mg/kg/injection, schedule: Q01DX005 (ip), vehicle: saline with Tween-80",105 % of control
N#Cc1ccc([N+](=O)[O-])o1,T/C,[6],100 % of control
same,T/C,[7],90 % of control
same,T/C,[8],95 % of control
O=C(c1ccc2c(c1)OCO2)S(=O)(=O)O,T/C,[14],102 % of control
same,T/C,[15],96 % of control
same,T/C,[16],97 % of control
CNC/C(Cl)=N/S(=O)(=O)c1ccc(C)cc1,T/C,[13],99 % of control
same,T/C,"dose: 120.0 mg/kg/injection, schedule: Q01DX005 (ip), vehicle: saline with Tween-80",99 % of control
same,T/C,"dose: 240.0 mg/kg/injection, schedule: Q01DX005 (ip), vehicle: saline with Tween-80",105 % of control
CCC(=O)Cc1nc2n(c1O)C(=N)N=N2,T/C,[14],98 % of control
same,T/C,[15],98 % of control
same,T/C,[16],98 % of control
CN(C)C1CCCCC1[N+](C)(C)C (stereo unspecified),T/C,"dose: 5.0 mg/kg/injection, schedule: Q01DX009 (ip), vehicle: saline sonified",100 % of control
same,T/C,"dose: 10.0 mg/kg/injection, schedule: Q01DX009 (ip), vehicle: saline sonified",95 % of control
same,T/C,"dose: 20.0 mg/kg/injection, schedule: Q01DX009 (ip), vehicle: saline sonified",90 % of control
c1ccc(SC(Sc2ccccc2)=C2CCCCC2)cc1,T/C,[9],100 % of control
same,T/C,[4],106 % of control
same,T/C,[5],90 % of control
Cc1c2c(=O)oc3ccc(Cl)cc3c2nn1-c1ccccc1,T/C,"dose: 60.0 mg/kg/injection, schedule: Q01DX005 (ip), vehicle: Klucel (hydroxypropylcellulose) (HPC)",96 % of control
same,T/C,"dose: 120.0 mg/kg/injection, schedule: Q01DX005 (ip), vehicle: Klucel (hydroxypropylcellulose) (HPC)",93 % of control
c1ccc2c(c1)[nH]c1c2c(N2CCOCC2)nn2nnnc12,T/C,[10],107 % of control
same,T/C,[11],106 % of control
same,T/C,[12],109 % of control
COc1ccc(C(C)c2cc(C(C)(C)C)c(O)c(C(C)(C)C)c2)cc1 (stereo unspecified),T/C,"dose: 50.0 mg/kg/injection, schedule: Q01DX005 (ip), vehicle: distilled water + alcohol",103 % of control
same,T/C,"dose: 100.0 mg/kg/injection, schedule: Q01DX005 (ip), vehicle: distilled water + alcohol",100 % of control
same,T/C,"dose: 200.0 mg/kg/injection, schedule: Q01DX005 (ip), vehicle: distilled water + alcohol",105 % of control
N#CCc1ccc(C(C#N)C(=O)CCC(=O)C(C#N)c2ccc(CC#N)cc2)cc1 (stereo unspecified),T/C,[1],100 % of control
same,T/C,[2],100 % of control
